Experimental data from patent publication US20260234129A1, “NOVEL IMIDAZOLE DERIVATIVE AND USE THEREOF” (PELEMED CO., LTD., priority 2023, published 2026).

Columns and labels:
Assay in all cases: scanMax kinase panel (Eurofins)
Assay type in all cases: binding
[1] = target: T1, CDK3 (Homo sapiens, UniProt Q00526); settings: CDK3, 1 μM; read-out: % control
T1 construct: purchased Eurofins
Experimental: (§1) The following assay method was performed to evaluate the inhibitory activities of a compound according to the present invention with respect to various enzymes. […] The compound was applied to the enzyme at a concentration of 1 μM, dissolved in DMSO, and the % control was determined according to Equation 1 below.
(§2) Here, the positive control refers to a compound corresponding to 0% control, and the negative control refers to a compound corresponding to 100% control.

[2] = target: T2, CDK4-cyclinD3 (Homo sapiens, UniProt P11802); settings: CDK4-cyclinD3, 1 μM; read-out: % control
T2 construct: purchased Eurofins scanMax® kinase panel
Experimental: as §1, §2

[3] = target: T3, CDK5 (Homo sapiens, UniProt Q00535); settings: CDK5, 1 μM; read-out: % control
T3 construct: purchased Eurofins scanMax® kinase panel
Experimental: as §1, §2

[4] = target: T4, JAKI(JH1domain-catalytic) (Homo sapiens, UniProt P23458); settings: read-out: % control
T4 construct: JAKI(JH1domain-catalytic); purchased Eurofins
Experimental: as §1, §2

[5] = target: T5, AURKC (Homo sapiens, UniProt Q9UQB9); settings: read-out: % control
T5 construct: purchased Eurofins
Experimental: as §1, §2

[6] = target: T6, DYRKIA (Homo sapiens, UniProt Q13627); settings: read-out: % control
T6 construct: purchased Eurofins scanMax® kinase panel
Experimental: as §1, §2

[7] = target: T7, MAP3K15 (Homo sapiens, UniProt Q6ZN16); settings: MAP3K15, 1 μM; read-out: % control
T7 construct: purchased Eurofins
Experimental: as §1, §2

[8] = target: T8, PIM2 (Homo sapiens, UniProt Q9P1W9); settings: PIM2, 1 μM; read-out: % control
T8 construct: purchased Eurofins scanMax kinase panel
Experimental: as §1, §2

[9] = target: T9, AURKA (Homo sapiens, UniProt O14965); settings: read-out: % control
T9 construct: purchased Eurofins
Experimental: as §1, §2

[10] = target: T10, KIT (Homo sapiens, UniProt P10721); settings: read-out: % control
T10 construct: purchased Eurofins
Experimental: as §1, §2

[11] = target: T11, RET (Homo sapiens, UniProt P07949); settings: read-out: % control
T11 construct: purchased Eurofins scanMax kinase panel
Experimental: as §1, §2

[12] = target: T12, IRAKI (Homo sapiens, UniProt P51617); settings: read-out: % control
T12 construct: purchased Eurofins
Experimental: as §1, §2

[13] = target: T13, CDK7 (Homo sapiens, UniProt P50613); settings: CDK7, 1 μM; read-out: % control
T13 construct: purchased Eurofins scanMax® kinase panel
Experimental: as §1, §2

[14] = target: T14, RET(M918T) (Homo sapiens, UniProt P07949, M918T); settings: read-out: % control
T14 construct: purchased Eurofins scanMax kinase panel
Experimental: as §1, §2

[15] = target: T15, IRAK4 (Homo sapiens, UniProt Q9NWZ3); settings: IRAK4, 1 μM; read-out: % control
T15 construct: purchased Eurofins
Experimental: as §1, §2

[16] = target: T16, ABL1(E255K)-phosphorylated (Homo sapiens, UniProt P00519, E255K); settings: read-out: % control
T16 construct: purchased Eurofins
Experimental: as §1, §2

[17] = target: T17, KIT(L576P) (Homo sapiens, UniProt P10721, L576P); settings: read-out: % control
T17 construct: purchased Eurofins
Experimental: as §1, §2

[18] = target: T18, CDK2 (Homo sapiens, UniProt P24941); settings: CDK2, 1 μM; read-out: % control
T18 construct: purchased Eurofins
Experimental: as §1, §2

[19] = target: T19, ARK5 (Homo sapiens, UniProt O60285); settings: ARK5, 1 μM; read-out: % control
T19 construct: purchased Eurofins
Experimental: as §1, §2

[20] = target: T20, HIPK3 (Homo sapiens, UniProt Q9H422); settings: HIPK3, 1 μM; read-out: % control
T20 construct: purchased Eurofins
Experimental: as §1, §2

[21] = target: T21, YES1 (Homo sapiens, UniProt P07947); settings: YES1, 1 μM; read-out: % control
T21 construct: purchased Eurofins scanMax kinase panel
Experimental: as §1, §2

[22] = target: T22, ABL1(T315I)-nonphosphorylated (Homo sapiens, UniProt P00519, T315I); settings: read-out: % control
T22 construct: purchased Eurofins
Experimental: as §1, §2

[23] = target: T23, MAP3K1 (Homo sapiens, UniProt Q13233); settings: MAP3K1, 1 μM; read-out: % control
T23 construct: purchased Eurofins
Experimental: as §1, §2

[24] = target: T24, ABL1(F317L)-phosphorylated (Homo sapiens, UniProt P00519, F317L); settings: read-out: % control
T24 construct: purchased Eurofins
Experimental: as §1, §2

[25] = target: T25, CDK4-cycllinDl (Homo sapiens, UniProt P11802); settings: read-out: % control
T25 construct: purchased Eurofins
Experimental: as §1, §2

[26] = target: T26, AXL (Homo sapiens, UniProt P30530); settings: read-out: % control
T26 construct: purchased Eurofins
Experimental: as §1, §2

[27] = target: T27, DYRK2 (Homo sapiens, UniProt Q92630); settings: DYRK2, 1 μM; read-out: % control
T27 construct: purchased Eurofins scanMax® kinase panel
Experimental: as §1, §2

[28] = target: T28, ERK4 (Homo sapiens, UniProt P31152); settings: ERK4, 1 μM; read-out: % control
T28 construct: purchased Eurofins scanMax® kinase panel
Experimental: as §1, §2

[29] = target: T29, ABL1(F317I)-phosphorylated (Homo sapiens, UniProt P00519, F317I); settings: read-out: % control
T29 construct: purchased Eurofins
Experimental: as §1, §2

[30] = target: T30, KIT(V559D, T670I) (Homo sapiens, UniProt P10721, T670I/V559D); settings: read-out: % control
T30 construct: purchased Eurofins
Experimental: as §1, §2

[31] = target: T31, ABL1-nonphosphorylated (Homo sapiens, UniProt P00519); settings: read-out: % control
T31 construct: purchased Eurofins
Experimental: as §1, §2

[32] = target: T32, ABL1(Q252H)-nonphosphorylated (Homo sapiens, UniProt P00519, Q252H); settings: read-out: % control
T32 construct: purchased Eurofins
Experimental: as §1, §2

[33] = target: T33, KIT(D816H) (Homo sapiens, UniProt P10721, D816H); settings: read-out: % control
T33 construct: purchased Eurofins
Experimental: as §1, §2

[34] = target: T34, ABL1(T315I)-phosphorylated (Homo sapiens, UniProt P00519, T315I); settings: read-out: % control
T34 construct: purchased Eurofins
Experimental: as §1, §2

T19 sequence (O60285 whole entry): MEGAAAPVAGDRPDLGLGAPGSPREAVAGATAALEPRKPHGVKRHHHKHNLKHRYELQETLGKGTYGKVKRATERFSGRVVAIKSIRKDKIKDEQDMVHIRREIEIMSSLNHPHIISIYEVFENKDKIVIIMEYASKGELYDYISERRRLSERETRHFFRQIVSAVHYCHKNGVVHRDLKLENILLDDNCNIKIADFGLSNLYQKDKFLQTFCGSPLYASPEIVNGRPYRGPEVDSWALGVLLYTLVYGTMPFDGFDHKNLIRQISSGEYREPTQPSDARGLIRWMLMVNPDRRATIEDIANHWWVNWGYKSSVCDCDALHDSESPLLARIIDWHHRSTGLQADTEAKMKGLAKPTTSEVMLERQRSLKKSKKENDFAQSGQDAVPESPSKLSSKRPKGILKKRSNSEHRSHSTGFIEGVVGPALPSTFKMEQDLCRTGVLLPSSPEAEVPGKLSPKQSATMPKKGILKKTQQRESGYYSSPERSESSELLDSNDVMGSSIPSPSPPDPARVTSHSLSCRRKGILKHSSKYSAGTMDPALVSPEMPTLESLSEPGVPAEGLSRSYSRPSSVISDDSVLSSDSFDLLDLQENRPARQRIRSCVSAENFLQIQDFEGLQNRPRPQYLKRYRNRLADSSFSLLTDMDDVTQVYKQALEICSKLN
T25 sequence (P11802 whole entry): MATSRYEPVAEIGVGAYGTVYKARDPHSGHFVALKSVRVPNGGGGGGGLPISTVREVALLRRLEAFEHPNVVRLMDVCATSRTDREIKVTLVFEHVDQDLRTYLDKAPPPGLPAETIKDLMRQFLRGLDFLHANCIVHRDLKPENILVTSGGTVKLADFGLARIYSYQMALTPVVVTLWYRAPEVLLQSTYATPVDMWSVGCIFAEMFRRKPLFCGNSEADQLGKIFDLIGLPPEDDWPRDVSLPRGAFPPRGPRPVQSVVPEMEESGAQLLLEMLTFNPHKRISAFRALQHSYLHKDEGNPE
T25 sequence (P24385 whole entry partner): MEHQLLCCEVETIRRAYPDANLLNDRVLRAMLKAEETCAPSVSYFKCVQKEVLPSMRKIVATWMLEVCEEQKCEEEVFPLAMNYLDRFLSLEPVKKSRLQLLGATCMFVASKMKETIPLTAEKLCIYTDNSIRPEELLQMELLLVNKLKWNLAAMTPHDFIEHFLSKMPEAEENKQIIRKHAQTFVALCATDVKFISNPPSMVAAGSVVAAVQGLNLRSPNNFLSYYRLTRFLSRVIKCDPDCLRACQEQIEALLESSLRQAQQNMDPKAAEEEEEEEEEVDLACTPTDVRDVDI
T2 sequence (P11802 whole entry): as the sequence (P11802 whole entry) above
T2 sequence (P30281 whole entry partner): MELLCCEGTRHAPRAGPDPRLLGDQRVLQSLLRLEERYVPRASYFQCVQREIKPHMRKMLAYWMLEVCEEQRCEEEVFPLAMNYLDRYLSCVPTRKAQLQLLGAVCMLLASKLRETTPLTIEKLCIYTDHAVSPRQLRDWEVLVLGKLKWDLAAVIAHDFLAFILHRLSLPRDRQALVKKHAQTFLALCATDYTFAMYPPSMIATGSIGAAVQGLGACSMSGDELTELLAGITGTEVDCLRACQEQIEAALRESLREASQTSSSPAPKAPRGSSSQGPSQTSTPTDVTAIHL
T20 sequence (Q9H422 whole entry): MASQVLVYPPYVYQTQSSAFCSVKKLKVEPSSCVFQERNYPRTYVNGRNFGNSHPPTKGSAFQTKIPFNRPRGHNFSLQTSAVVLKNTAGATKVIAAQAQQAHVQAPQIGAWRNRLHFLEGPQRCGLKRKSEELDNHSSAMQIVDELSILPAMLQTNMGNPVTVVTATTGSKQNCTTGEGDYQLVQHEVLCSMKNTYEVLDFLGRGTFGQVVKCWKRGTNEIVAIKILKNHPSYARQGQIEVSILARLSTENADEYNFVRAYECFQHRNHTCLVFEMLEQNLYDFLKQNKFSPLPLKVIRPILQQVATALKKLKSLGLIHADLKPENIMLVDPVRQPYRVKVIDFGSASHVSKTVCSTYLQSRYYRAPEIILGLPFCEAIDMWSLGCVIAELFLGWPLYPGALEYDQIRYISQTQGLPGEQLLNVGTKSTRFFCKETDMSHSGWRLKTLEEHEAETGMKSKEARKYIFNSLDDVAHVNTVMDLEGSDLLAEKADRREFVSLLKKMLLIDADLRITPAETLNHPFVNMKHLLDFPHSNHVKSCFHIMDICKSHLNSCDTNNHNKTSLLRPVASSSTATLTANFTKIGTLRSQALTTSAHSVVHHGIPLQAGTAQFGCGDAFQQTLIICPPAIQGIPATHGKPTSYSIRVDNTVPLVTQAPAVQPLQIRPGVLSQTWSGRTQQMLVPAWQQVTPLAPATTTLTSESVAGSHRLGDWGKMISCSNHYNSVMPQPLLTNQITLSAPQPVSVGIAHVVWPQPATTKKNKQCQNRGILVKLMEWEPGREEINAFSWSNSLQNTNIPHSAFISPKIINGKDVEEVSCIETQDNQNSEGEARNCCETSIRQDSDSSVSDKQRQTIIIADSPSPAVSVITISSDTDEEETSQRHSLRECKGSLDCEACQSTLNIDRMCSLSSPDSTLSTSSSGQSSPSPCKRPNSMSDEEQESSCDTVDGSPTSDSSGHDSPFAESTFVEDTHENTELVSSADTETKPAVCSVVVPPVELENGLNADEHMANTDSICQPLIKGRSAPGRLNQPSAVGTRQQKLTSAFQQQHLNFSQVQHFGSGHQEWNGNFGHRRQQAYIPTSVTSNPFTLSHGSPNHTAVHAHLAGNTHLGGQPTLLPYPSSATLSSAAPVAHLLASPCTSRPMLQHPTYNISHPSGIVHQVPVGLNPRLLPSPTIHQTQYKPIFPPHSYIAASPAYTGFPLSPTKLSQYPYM
T10 sequence (P10721 26-976): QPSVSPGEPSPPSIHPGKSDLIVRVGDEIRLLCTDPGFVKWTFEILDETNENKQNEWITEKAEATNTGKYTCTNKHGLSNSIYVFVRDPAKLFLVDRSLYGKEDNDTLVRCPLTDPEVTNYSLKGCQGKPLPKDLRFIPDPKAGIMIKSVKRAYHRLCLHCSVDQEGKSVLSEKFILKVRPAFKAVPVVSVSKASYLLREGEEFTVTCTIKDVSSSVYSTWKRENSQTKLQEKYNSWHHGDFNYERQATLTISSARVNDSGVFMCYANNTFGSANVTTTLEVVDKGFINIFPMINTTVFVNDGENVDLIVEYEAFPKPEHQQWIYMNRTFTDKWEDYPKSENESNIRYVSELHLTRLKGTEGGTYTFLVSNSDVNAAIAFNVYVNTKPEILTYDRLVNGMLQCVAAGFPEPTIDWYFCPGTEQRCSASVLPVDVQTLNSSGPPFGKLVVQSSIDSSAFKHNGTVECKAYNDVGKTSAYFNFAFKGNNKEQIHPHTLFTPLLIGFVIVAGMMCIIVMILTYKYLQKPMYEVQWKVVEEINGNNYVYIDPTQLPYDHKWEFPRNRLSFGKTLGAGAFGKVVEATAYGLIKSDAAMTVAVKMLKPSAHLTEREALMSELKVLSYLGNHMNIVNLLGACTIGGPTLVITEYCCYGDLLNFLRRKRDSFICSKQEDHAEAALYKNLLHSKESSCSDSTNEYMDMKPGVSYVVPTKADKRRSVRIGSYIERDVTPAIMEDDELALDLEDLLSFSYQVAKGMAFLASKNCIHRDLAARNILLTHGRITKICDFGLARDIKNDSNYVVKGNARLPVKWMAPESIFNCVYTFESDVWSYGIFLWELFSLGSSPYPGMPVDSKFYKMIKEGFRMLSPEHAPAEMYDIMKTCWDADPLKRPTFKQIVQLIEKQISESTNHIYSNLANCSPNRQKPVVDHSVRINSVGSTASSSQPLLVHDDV
T4 sequence (P23458 875-1153 limits assumed): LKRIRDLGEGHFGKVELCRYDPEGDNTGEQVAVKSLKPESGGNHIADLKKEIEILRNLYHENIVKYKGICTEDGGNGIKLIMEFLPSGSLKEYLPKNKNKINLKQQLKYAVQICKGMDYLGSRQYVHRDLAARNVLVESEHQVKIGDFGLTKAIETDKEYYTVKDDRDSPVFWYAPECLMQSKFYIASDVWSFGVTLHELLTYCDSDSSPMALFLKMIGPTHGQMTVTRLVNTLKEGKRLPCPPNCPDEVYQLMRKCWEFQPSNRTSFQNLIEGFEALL
T1 sequence (Q00526 whole entry): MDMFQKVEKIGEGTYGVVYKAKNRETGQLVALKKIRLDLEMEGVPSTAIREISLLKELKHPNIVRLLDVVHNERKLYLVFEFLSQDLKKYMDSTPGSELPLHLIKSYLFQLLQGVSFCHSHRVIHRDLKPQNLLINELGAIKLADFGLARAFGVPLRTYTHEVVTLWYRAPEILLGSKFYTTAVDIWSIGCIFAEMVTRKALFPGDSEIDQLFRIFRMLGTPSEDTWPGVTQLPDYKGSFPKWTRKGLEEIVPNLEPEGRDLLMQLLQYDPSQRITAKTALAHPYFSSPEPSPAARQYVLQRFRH
T3 sequence (Q00535 whole entry): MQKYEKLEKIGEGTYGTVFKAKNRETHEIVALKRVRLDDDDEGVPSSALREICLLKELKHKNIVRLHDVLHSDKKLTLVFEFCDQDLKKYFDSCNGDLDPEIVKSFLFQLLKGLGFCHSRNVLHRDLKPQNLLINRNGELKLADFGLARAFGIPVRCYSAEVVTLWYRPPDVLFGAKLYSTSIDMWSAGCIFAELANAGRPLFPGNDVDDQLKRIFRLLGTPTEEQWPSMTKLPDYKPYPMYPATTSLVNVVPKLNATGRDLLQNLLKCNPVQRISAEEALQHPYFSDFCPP
T33 sequence (P10721 26-976 D816H): as the sequence (P10721 26-976) above, with D791H counted along it
T5 sequence (Q9UQB9 whole entry): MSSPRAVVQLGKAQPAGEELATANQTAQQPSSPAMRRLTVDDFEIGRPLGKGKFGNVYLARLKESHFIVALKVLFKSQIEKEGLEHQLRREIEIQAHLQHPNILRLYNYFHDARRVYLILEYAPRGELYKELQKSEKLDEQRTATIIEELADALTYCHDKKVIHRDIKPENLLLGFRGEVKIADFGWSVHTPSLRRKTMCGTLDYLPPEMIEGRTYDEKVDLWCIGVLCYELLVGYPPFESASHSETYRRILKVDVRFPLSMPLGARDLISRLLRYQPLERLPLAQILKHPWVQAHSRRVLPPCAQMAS

remaining binding at 1 µM [1]: < 10% | remaining binding at 1 µM [2]: < 10% | remaining binding at 1 µM [3]: < 10% | remaining binding at 1 µM [4]: < 10% | remaining binding at 1 µM [5]: < 10% | remaining binding at 1 µM [6]: < 10% | remaining binding at 1 µM [7]: < 10% | remaining binding at 1 µM [8]: < 10% | remaining binding at 1 µM [9]: < 10% | remaining binding at 1 µM [10]: < 10% | remaining binding at 1 µM [11]: < 10% | remaining binding at 1 µM [12]: < 10% | remaining binding at 1 µM [13]: < 10% | remaining binding at 1 µM [14]: < 10% | remaining binding at 1 µM [15]: < 10% | remaining binding at 1 µM [16]: < 10% | remaining binding at 1 µM [17]: < 10% | remaining binding at 1 µM [18]: < 10% | remaining binding at 1 µM [19]: < 10% | remaining binding at 1 µM [20]: < 10% | remaining binding at 1 µM [21]: < 10% | remaining binding at 1 µM [22]: < 10% | remaining binding at 1 µM [23]: < 10% | remaining binding at 1 µM [24]: < 10% | remaining binding at 1 µM [25]: < 10% | remaining binding at 1 µM [26]: < 10% | remaining binding at 1 µM [27]: < 10% | remaining binding at 1 µM [28]: < 10% | remaining binding at 1 µM [29]: < 10% | remaining binding at 1 µM [30]: < 10% | remaining binding at 1 µM [31]: < 10% | remaining binding at 1 µM [32]: < 10% | remaining binding at 1 µM [33]: < 10% | remaining binding at 1 µM [34]: < 10%
SMILES: COc1ccc2nc(-c3n[nH]c4ccc(C(=O)N[C@H]5CC[C@H](N)C5)cc34)[nH]c2c1 [Example 32, N-((1S,3S)-3-aminocyclopentyl)-3-(6-methoxy-1H-benzo[d]imidazol-2-yl)-1H-indazole-5-carboxamide]
